Experimental findings from US5807850A, “Therapeutic agent for osteoporosis and triazepine compound” (Japan Tobacco, Inc., priority 1994, dated 1998) are described below.

Structures are written as SMILES. Structures can show the parent of a compound that is named as a salt.

Assay [1] relates to lumbar spine (L4-5) vertebral body of ovariectomized rats. The experiment in a line: Suppression of bone mass decrease in ovariectomized rats (osteoporosis model rats). The class given is in vivo, Female SD rats. As to conditions: 12 weeks, Control 46.1 ± 0.5, Normal control 56.3 ± 1.4. As for the experimental part: Experimental Example 2 suppression of bone mass decrease
The suppressive effect of the compound of the present invention on the bone mass decrease was tested using the ovariectomized rats (osteoporosis model rats).
Female SD rats (13 weeks of age) were subjected to bilateral ovariectomies under anesthesia with Nembutal (50 mg/kg/ml, i.p.; Dai-Nippon Pharmaceutical). At the same time, a sham control group that was subjected to sham surgery without removing ovaries was prepared. The next day of the operation, the rats were grouped in such a manner that the bone mineral density (hereinafter abbreviated as BMD) of each group would reach an average. The BMD was determined by their bone mineral density of lumbar spine (L 4-5) that was measured with a DXA bone densitometer (DCS-600 R, Aloka) under ether anesthesia. The test compounds were suspended in 0.5% hydroxypropylmethylcellulose (hereinafter abbreviated as HPMC, Shin-Etsu Chemical Industries, Ltd.) and they were administered orally at the doses of 0.3, 1.0 and 3.0 mg/kg (5 ml/kg:) for 12 weeks daily from the day following the operation. As a positive control, 17 β-estradiol (Sigma) was dissolved in 5% benzyl alcohol and 95% corn oil, and administered subcutaneously at a dose of 50 μg/kg (1 ml/kg) twice a week for 12 weeks. 0.5% HPMC was administered orally to the normal control and the control for 12 weeks at 5 ml/kg. The next day of the final administration, the rats were exsanguinated and killed under ether anesthesia and the lumbar spine (L4-5) was recovered. The soft tissues and processes were removed from the obtained lumbar spine and BMD of the vertebral body (L4-5) was determined with DCS-600 R (Aloka).
The results are shown by mean±S.E. of the respective groups and the statistical evaluations of the effect of respective groups were made by one-way analysis of variance. The significance was ascribed at less than 5%.

Another assay relates to calvaria. The experiment in a line: Inhibition of bone resorption (45Ca release from calvaria stimulated with hPTH (1-34), method of Raisz). The class given is cell-based, new born ICR mouse. As to conditions: Mus musculus, 72 h; 45Ca release, 50 nM hPTH (1-34), 3 days incubation; test concentrations 0.04, 0.2 and 1 μM; mean of 4 pairs; read-out: IC50 (inhibition of bone resorption).

Where [2] appears, read: 0.3 mg/kg p.o., daily, n=9, mean ± S.E.
[3] abbreviates: 1 mg/kg p.o., daily, n=8, mean ± S.E., *p < 0.05.
Setting [4] is: 3 mg/kg p.o., daily, n=9, mean ± S.E., **p < 0.01.

Description for calvaria: The determination of the inhibitory action on the bone resorption was basically in accordance with the method of Raisz [J. Clin. Invest. vol.
A new born ICR mouse (one or two days old) was intraperitoneally administered with 1.5μ Ci ^45 Ca (isotope of calcium as CaCl2 solution) and calvaria was aseptically removed the next day. The calvaria was split into two along the central suture line, and one of them was used as a control and the other was used as a test compound. The calvaria was preincubated at 37° C. for 2 days in BGJb medium [0.5 ml, Fitton-Jackson modification, GIBCO Laboratories, USA, containing bovine serum albumin 1 mg/ml] added with a test compound to the concentrations of 0.04 μM, 0.2 μM and 1 μM and then in the above-mentioned medium containing 50 nM hPTH (1-34) for further 3 days. After the incubation, the ^45 Ca radioactivity in the medium and the bone was determined, and the proportion (%) of ^45 Ca released from the bone into the medium was calculated by the following formula.
Using the bone obtained from the same mouse and treated in the same manner without adding a test compound, as a control, the proportion (%) relative to the control group was determined according to the following formula.

As for `C[C@]12CC[C@@H]3c4ccc(O)cc4CC[C@H]3[C@@H]1CC[C@@H]2O` [17 β-estradiol, reference compound], in assay [1] (positive control, 0.05 mg/kg s.c., twice a week, n=8, mean ± S.E.), the “BMD of body of vertebra” value was determined as 53.5 ± 0.7 mg/cm^2.

`Cc1nnc2n1-c1ccccc1C(c1ccc(Cl)cc1)=NN2Cc1cccnc1` [Example 54, 6-(4-Chlorophenyl)-1-methyl-4-(pyridin-3-ylmethyl)-4H-2,3,4,5,10b-pentaazabenz[e]azulene]: the “BMD of body of vertebra” value was 46.2 ± 0.4 mg/cm^2 in assay [1] (setting [2]), 47.3 ± 0.6 mg/cm^2 in assay [1] (setting [3]) and 51.6 ± 0.4 mg/cm^2 in assay [1] (setting [4]). Besides, the half-inhibitory concentration (IC50) in the assay with calvaria came to 540 nM.

On to `Cc1ccc2c(c1)-n1c(C)nnc1N(Cc1ccncc1)N=C2c1ccccc1` [Example 131, 1,9-Dimethyl-6-phenyl-4-(pyridin-4-ylmethyl)-4H-2,3,4,5,10b-pentaazabenz[e]azulene], for which the “BMD of body of vertebra” value in assay [1] (setting [2]) was 46.5 ± 0.8 mg/cm^2; in assay [1] (setting [3]) it was 48.5 ± 0.5 mg/cm^2; in assay [1] (setting [4]) it was 51.3 ± 0.9 mg/cm^2. The IC50 in the assay on calvaria was 990 nM. As to `Cc1sc2c(c1C)C(c1ccc(Cl)cc1)=NN(Cc1cccnc1)c1nnc(C)n1-2` [Example 139, 4-(4-Chlorophenyl)-2,3,9-trimethyl-6-(pyridin-3-ylmethyl)-6H-5,6,7,8,9a-pentaazathien[2,3-e]azulene], the IC50 in the assay on calvaria was determined as 18 nM. Regarding `Cc1sc2c(c1C)C(c1ccc(Cl)cc1)=NN(Cc1ccncc1)c1nnc(C)n1-2` [Example 140, 4-(4-Chlorophenyl)-2,3,9-trimethyl-6-(pyridin-4-ylmethyl)-6H-5,6,7,8,9a-pentaazathien[2,3-e]azulene], in the assay with calvaria, the half-inhibitory concentration (IC50) was 50 nM. Still for that read-out and setting: under `CCc1cc2c(s1)-n1c(C)nnc1N(Cc1cccnc1)N=C2c1ccc(Cl)cc1` [Example 141, 4-(4-Chlorophenyl)-2-ethyl-9-methyl-6-(pyridin-3-ylmethyl)-6H-5,6,7,8,9a-pentaazathien[2,3-e]azulene] stands 680 nM; under `CCc1cc2c(s1)-n1c(C)nnc1N(Cc1ccncc1)N=C2c1ccc(Cl)cc1` [Example 142, 4-(4-Chlorophenyl)-2-ethyl-9-methyl-6-(pyridin-4-ylmethyl)-6H-5,6,7,8,9a-pentaazathien[2,3-e]azulene], 450 nM; under `Cc1cc2c(s1)-n1c(C)nnc1N(Cc1cccnc1)N=C2c1ccccc1` [Example 143, 2,9-Dimethyl-4-phenyl-6-(pyridin-3-ylmethyl)-6H-5,6,7,8,9a-pentaazathien[2,3-e]azulene], 340 nM. Still for that read-out and setting: under `Cc1cc2c(s1)-n1c(C)nnc1N(Cc1ccncc1)N=C2c1ccccc1` [Example 144, 2,9-Dimethyl-4-phenyl-6-(pyridin-4-ylmethyl)-6H-5,6,7,8,9a-pentaazathien[2,3-e]azulene] stands 270 nM; under `Cc1sc2c(c1C)C(c1ccccc1)=NN(Cc1cccnc1)c1nnc(C)n1-2` [Example 145, 2,3,9-Trimethyl-4-phenyl-6-(pyridin-3-ylmethyl)-6H-5,6,7,8,9a-pentaazathien[2,3-e]azulene], 120 nM. Still for that read-out and setting: under `Cc1sc2c(c1C)C(c1ccccc1)=NN(Cc1ccncc1)c1nnc(C)n1-2` [Example 146, 2,3,9-Trimethyl-4-phenyl-6-(pyridin-4-ylmethyl)-6H-5,6,7,8,9a-pentaazathien[2,3-e]azulene] stands 100 nM; under `CCc1cc2c(s1)-n1c(C)nnc1N(Cc1cccnc1)N=C2c1ccccc1` [Example 147, 2-Ethyl-9-methyl-4-phenyl-6-(pyridin-3-ylmethyl)-6H-5,6,7,8,9a-pentaazathien[2,3-e]azulene], 810 nM; under `CCc1cc2c(s1)-n1c(C)nnc1N(Cc1ccncc1)N=C2c1ccccc1` [Example 148, 2-Ethyl-9-methyl-4-phenyl-6-(pyridin-4-ylmethyl)-6H-5,6,7,8,9a-pentaazathien[2,3-e]azulene], 680 nM.

As for `COc1ccc(C2=NN(Cc3cccnc3)c3nnc(C)n3-c3sc(C)c(C)c32)cc1` [Example 149, 4-(4-Methoxyphenyl)-2,3,9-trimethyl-6-(pyridin-3-ylmethyl)-6H-5,6,7,8,9a-pentaazathien[2,3-e]azulene], the concentration for half-maximal inhibition (IC50) in the assay with calvaria is 180 nM.

Regarding `COc1ccc(C2=NN(Cc3ccncc3)c3nnc(C)n3-c3sc(C)c(C)c32)cc1` [Example 150, 4-(4-Methoxyphenyl)-2,3,9-trimethyl-6-(pyridin-4-ylmethyl)-6H-5,6,7,8,9a-pentaazathien[2,3-e]azulene], the half-inhibitory concentration (IC50) in the assay with calvaria is 29 nM.

Regarding `Cc1nnc2n1-c1ccccc1C(c1ccc(Cl)cc1)=NN2Cc1ccc(O)cc1` [Example 184, 6-(4-Chlorophenyl)-4-(4-hydroxybenzyl)-1-methyl-4H-2,3,4,5,10b-pentaazabenz[e]azulene], in the assay on calvaria, the IC50 was found to be 560 nM. The same measure, in the same setting: under `CCOc1ccc(CN2N=C(c3ccc(Cl)cc3)c3ccccc3-n3c(C)nnc32)cc1` [Example 186, 6-(4-Chlorophenyl)-4-(4-ethoxybenzyl)-1-methyl-4H-2,3,4,5,10b-pentaazabenz[e]azulene] stands 790 nM. On the same count and under the same terms, under `CC(=O)Nc1ccc(CN2N=C(c3ccc(Cl)cc3)c3ccccc3-n3c(C)nnc32)cc1` [Example 189, 4-(4-Acetylaminobenzyl)-6-(4-chlorophenyl)-1-methyl-4H-2,3,4,5,10b-pentaazabenz[e]azulene] stands 260 nM; under `Cc1nnc2n1-c1ccccc1C(c1ccc(Cl)cc1)=NN2Cc1ccc(N(C)C)cc1` [Example 191, 6-(4-Chlorophenyl)-4-(4-dimethylaminobenzyl)-1-methyl-4H-2,3,4,5,10b-pentaazabenz[e]azulene hydrochloride], 740 nM.

For orientation: IC50 means the concentration that inhibits the measured activity by half.
